Source: ChEMBL document CHEMBL1201862, “PubChem BioAssay data set” (2004)
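The compound was tested at five concentrations on cells cultured in 96-well plates, with a 48-hour exposure period. Here, GI50 denotes the concentration required for 50% inhibition of growth.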 Active and inactive are the calls of the source. No stated cut-off is given here; in the data, active = GI50 up to about 1.1 µM and inactive = higher.

Columns and labels:
Assay in all cases: NCI tumour cell line growth inhibition, 48 h
786-0 = test system: 786-0
A549 = test system: A549
ACHN = test system: ACHN
BT-549 = test system: BT-549
CAKI-1 = test system: CAKI-1
CCRF-CEM = test system: CCRF-CEM
COLO 205 = test system: COLO 205
DU-145 = test system: DU-145
EKVX = test system: EKVX
HCC 2998 = test system: HCC 2998
HCT-116 = test system: HCT-116
HCT-15 = test system: HCT-15
HL-60 = test system: HL-60
HOP-62 = test system: HOP-62
HOP-92 = test system: HOP-92
HT-29 = test system: HT-29
Hs-578T = test system: Hs-578T
IGROV-1 = test system: IGROV-1
K562 = test system: K562
KM12 = test system: KM12
LOX IMVI = test system: LOX IMVI
M14 = test system: M14
MCF7 = test system: MCF7
MDA-MB-231 = test system: MDA-MB-231
MDA-MB-435 = test system: MDA-MB-435
MDA-N = test system: MDA-N
MOLT-4 = test system: MOLT-4
Malme-3M = test system: Malme-3M
NCI-H226 = test system: NCI-H226
NCI-H23 = test system: NCI-H23
NCI-H460 = test system: NCI-H460
NCI-H522 = test system: NCI-H522
NCI/ADR-RES = test system: NCI/ADR-RES
OVCAR-3 = test system: OVCAR-3
OVCAR-4 = test system: OVCAR-4
OVCAR-5 = test system: OVCAR-5
OVCAR-8 = test system: OVCAR-8
PC-3 = test system: PC-3
RPMI-8226 = test system: RPMI-8226
RXF 393 = test system: RXF 393
SF-268 = test system: SF-268
SF-295 = test system: SF-295
SF-539 = test system: SF-539
SK-MEL-28 = test system: SK-MEL-28
SK-MEL-2 = test system: SK-MEL-2
SK-MEL-5 = test system: SK-MEL-5
SK-OV-3 = test system: SK-OV-3
SN12C = test system: SN12C
SNB-19 = test system: SNB-19
SNB-75 = test system: SNB-75
SR = test system: SR
SW-620 = test system: SW-620
T47D = test system: T47D
TK-10 = test system: TK-10
U-251 = test system: U-251
UACC-257 = test system: UACC-257
UACC-62 = test system: UACC-62

Structure (SMILES): Cc1nn(C(=O)c2ccc(Cl)cc2)c2c1C(c1ccccc1)SC(=N)N2 (configuration not stated)
- GI50 (786-0): > 10 µM (inactive)
- GI50 (A549): > 10 µM (inactive)
- GI50 (ACHN): > 10 µM (inactive)
- GI50 (BT-549): > 10 µM (inactive)
- GI50 (CAKI-1): > 10 µM (inactive)
- GI50 (CCRF-CEM): > 10 µM (inactive)
- GI50 (COLO 205): > 10 µM (inactive)
- GI50 (DU-145): > 10 µM (inactive)
- GI50 (EKVX): > 10 µM (inactive)
- GI50 (HCC 2998): > 10 µM (inactive)
- GI50 (HCT-116): > 10 µM (inactive)
- GI50 (HCT-15): > 10 µM
- GI50 (HL-60): > 10 µM (inactive)
- GI50 (HOP-62): > 10 µM (inactive)
- GI50 (HOP-92): > 10 µM (inactive)
- GI50 (HT-29): > 10 µM (inactive)
- GI50 (Hs-578T): > 10 µM (inactive)
- GI50 (IGROV-1): > 10 µM (inactive)
- GI50 (K562): > 10 µM (inactive)
- GI50 (KM12): > 10 µM (inactive)
- GI50 (LOX IMVI): > 10 µM (inactive)
- GI50 (M14): > 10 µM (inactive)
- GI50 (MCF7): > 10 µM (inactive)
- GI50 (MDA-MB-231): > 10 µM (inactive)
- GI50 (MDA-MB-435): > 10 µM (inactive)
- GI50 (MDA-N): > 10 µM (inactive)
- GI50 (MOLT-4): > 10 µM (inactive)
- GI50 (Malme-3M): > 10 µM (inactive)
- GI50 (NCI-H226): > 10 µM (inactive)
- GI50 (NCI-H23): > 10 µM (inactive)
- GI50 (NCI-H460): > 10 µM (inactive)
- GI50 (NCI-H522): > 10 µM (inactive)
- GI50 (NCI/ADR-RES): > 10 µM (inactive)
- GI50 (OVCAR-3): > 10 µM (inactive)
- GI50 (OVCAR-4): > 10 µM (inactive)
- GI50 (OVCAR-5): > 10 µM (inactive)
- GI50 (OVCAR-8): > 10 µM (inactive)
- GI50 (PC-3): > 10 µM (inactive)
- GI50 (RPMI-8226): > 10 µM (inactive)
- GI50 (RXF 393): > 10 µM (inactive)
- GI50 (SF-268): > 10 µM (inactive)
- GI50 (SF-295): > 10 µM (inactive)
- GI50 (SF-539): > 10 µM (inactive)
- GI50 (SK-MEL-28): > 10 µM (inactive)
- GI50 (SK-MEL-2): > 10 µM (inactive)
- GI50 (SK-MEL-5): > 10 µM (inactive)
- GI50 (SK-OV-3): > 10 µM (inactive)
- GI50 (SN12C): > 10 µM (inactive)
- GI50 (SNB-19): > 10 µM (inactive)
- GI50 (SNB-75): > 10 µM (inactive)
- GI50 (SR): > 10 µM (inactive)
- GI50 (SW-620): > 10 µM (inactive)
- GI50 (T47D): > 10 µM (inactive)
- GI50 (TK-10): > 10 µM (inactive)
- GI50 (U-251): > 10 µM (inactive)
- GI50 (UACC-257): > 10 µM (inactive)
- GI50 (UACC-62): > 10 µM (inactive)
